Where two headings read alike, the source gives them in different places.
Assays:
Assay type in all cases: cell-based, human
MYB = experiment: HiBiT protein abundance assay, MYB (K562 HiBiT knock-in); conditions: HiBiT knock-in K562 cells, 24 hours, top dose 10 μM
Outline: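 Endogenously HiBiT-tagged K562 lines were treated for 24 h at 37 °C with 10-point 3-fold dilutions (top 10 μM final, DMSO ≤0.25%). Lytic LgBiT complementation luminescence was normalized between unmodified K562 (PC) and DMSO-treated tagged cells (NC); IC50 was interpolated at 50% from a four-parameter logistic fit.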

SMN2 mRNA = experiment: RT-qPCR splicing assay, SMN2 mRNA; conditions: Homo sapiens, canonical junction qPCR panel, Table 4; read-out: SMN2 IC50 (decrease in CJ mRNA levels)
Outline: (§1)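 Both isoforms, CJ and AJ, read by qPCR from crude lysates of treated A673 or K562 cells; 24 h, 37 °C, maximum 10 uM. Normalization: housekeeper ΔCt, then DMSO ΔΔCt.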

Target C = experiment: HiBiT protein abundance assay, Target C (K562 HiBiT knock-in); conditions: HiBiT knock-in K562 cells, 24 hours, top dose 10 μM
Outline: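 K562 HiBiT knock-in cells (10000/well) were treated 24 h at 37° C with a 10-point 3-fold dilution series (top 10 μM final, ≤0.25% DMSO). HiBiT luminescence was read after lytic LgBiT detection. Percent response used unmodified K562 and DMSO-treated knock-in controls, and IC50 came from a four-parameter fit at 50% of untreated.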

HTT mRNA = experiment: RT-qPCR splicing assay, HTT mRNA canonical (CJ) and alternative (AJ) junction; conditions: Homo sapiens; for AC50: HTT alternative junction mRNA, read-out: HTT AJ (increase in AJ mRNA, AC50)
Outline: as §1

MYB mRNA = experiment: RT-qPCR splicing assay, MYB mRNA canonical (CJ) and alternative (AJ) junction; conditions: Homo sapiens; for AC50: MYB alternative junction mRNA, read-out: MYB AJ (increase in AJ mRNA, AC50)
Outline: as §1

[1] = HTT canonical junction mRNA, RT-qPCR, read-out: HTT CJ (decrease in CJ mRNA levels, IC50)
[2] = canonical junction qPCR panel, Table 4, read-out: HTT IC50 (decrease in CJ mRNA levels)
[3] = MYB canonical junction mRNA, RT-qPCR, read-out: MYB CJ (decrease in CJ mRNA levels, IC50)
[4] = canonical junction qPCR panel, Table 4, read-out: MYB IC50 (decrease in CJ mRNA levels)

Row | SMILES | IC50 (MYB) | IC50 (SMN2 mRNA) | IC50 (Target C) | AC50 (HTT mRNA; RT-qPCR) | IC50 (HTT mRNA; [1]) | IC50 (HTT mRNA; [2]) | AC50 (MYB mRNA; RT-qPCR) | IC50 (MYB mRNA; [3]) | IC50 (MYB mRNA; [4])
1 | Cn1cc2cc(-c3ccc4nc(N5CC[C@@H](N[C@H]6C[C@@H](F)C6)C5)ccc4n3)c(O)cc2n1 (single isomer, unassigned) [Compound 300] | < 100 nM | < 100 nM | < 100 nM | < 100 nM | < 100 nM | < 100 nM | < 100 nM | < 100 nM | < 100 nM
2 | Cn1cc2cc(-c3ccc4nc(N5CC[C@@H](NCC6CC6)C5)ccc4n3)c(O)c(F)c2n1 (single isomer, unassigned) [Compound 303] | < 100 nM | < 100 nM | < 100 nM | < 100 nM | < 100 nM | < 100 nM | < 100 nM | < 100 nM | < 100 nM
3 | Cn1cc2cc(-c3ccc4nc(N5CC[C@H](NCC6CC6)C5)ccc4n3)c(O)c(F)c2n1 (single isomer, unassigned) [Compound 304] | < 100 nM | < 100 nM | < 100 nM | < 100 nM | < 100 nM | < 100 nM | < 100 nM | < 100 nM | < 100 nM
4 | Cn1cc2cc(-c3ccc4nc(N5CC[C@@H](NC6CC6)C5)ccc4n3)c(O)c(F)c2n1 (single isomer, unassigned) [Compound 305] | < 100 nM | < 100 nM | < 100 nM | < 100 nM | < 100 nM | < 100 nM | < 100 nM | < 100 nM | < 100 nM
5 | Cn1cc2cc(-c3ccc4nc(N5CC[C@H](NC6CC6)C5)ccc4n3)c(O)c(F)c2n1 (single isomer, unassigned) [Compound 306] | < 100 nM | < 100 nM | < 100 nM | < 100 nM | < 100 nM | < 100 nM | < 100 nM | < 100 nM | < 100 nM
6 | Cc1nc2c(F)c(O)c(-c3ccc4nc(N5CC[C@@H](NC6CCC6)C5)ccc4n3)cc2o1 (single isomer, unassigned) [Compound 307] | < 100 nM | < 100 nM | < 100 nM | < 100 nM | < 100 nM | < 100 nM | < 100 nM | < 100 nM | < 100 nM
7 | Cc1nc2c(F)c(O)c(-c3ccc4nc(N5CC[C@H](NC6CCC6)C5)ccc4n3)cc2o1 (single isomer, unassigned) [Compound 308] | < 100 nM | < 100 nM | < 100 nM | < 100 nM | < 100 nM | < 100 nM | < 100 nM | < 100 nM | < 100 nM
8 | Cc1nc2c(C)c(O)c(-c3ccc4nc(N5CC[C@@H](NC6(C)CC6)C5)ccc4n3)cc2o1 (single isomer, unassigned) [Compound 310] | < 100 nM | < 100 nM | < 100 nM | < 100 nM | < 100 nM | < 100 nM | < 100 nM | < 100 nM | < 100 nM
9 | Cc1nc2c(C)c(O)c(-c3ccc4nc(N5CC[C@H](NC6(C)CC6)C5)ccc4n3)cc2o1 (single isomer, unassigned) [Compound 311] | 100 to 1000 nM | < 100 nM | < 100 nM | < 100 nM | < 100 nM | < 100 nM | 100 to 1000 nM | 100 to 1000 nM | 100 to 1000 nM

— patent publication US20250092065A1, “2-(INDAZOL-5-YL)-6-(PIPERIDIN-4-YL)-1,7-NAPHTHYRIDINE DERIVATIVES AND RELATED COMPOUNDS AS MODULATORS FOR SPLICING NUCLEIC ACIDS AND FOR THE TREATMENT OF PROLIFERATIVE DISEASES” (REMIX THERAPEUTICS INC., priority 2022, published 2025)
